{
  "source": "patent US20080260771A1",
  "about": "“PROSTATE DISORDER(S) PHYTO-NUTRACEUTICAL SYNERGISTIC COMPOSITION” (priority 2006, published 2008)",
  "origin": "cited, not measured here",
  "key": {"[1]": {"tested_on": "human prostate cancer cells", "conditions": "not in normal prostate epithelial cells"}, "[2]": {"tested_on": "prostate cancer", "conditions": "supranutritional doses of selenium, clinical trials"}, "[3]": {"tested_on": "prostate tumor"}},
  "data": [
    {"compound": "[Se]", "note": "[Selenium]", "values": [
      {"measurement": "apoptotic death", "setting": "[1]", "result": "induces rapid apoptotic death"},
      {"measurement": "reduction of prostate cancer incidence", "setting": "[2]", "result": 50, "unit": "%"}
    ]},
    {"compound": "Vitamin E", "values": [
      {"measurement": "tumor growth and lung metastases", "setting": "[3]", "result": "significantly suppressed tumor growth"}
    ]}
  ]
}
